Active and inactive are the calls of the source. No rule for the calls is given here.

In the series the test system is CCRIS mutagenicity, Ames/micronucleus/aberration tests. The series can be described thus: CCRIS mutagenicity studies.
[1] abbreviates: Test System: AMES SALMONELLA TYPHIMURIUM, Strain/Indicator: TA98, Metabolic Activation: RAT, LIVER, S-9, AROCLOR 1254, Method: STANDARD PLATE.
Setting [2] is: Test System: AMES SALMONELLA TYPHIMURIUM, Strain/Indicator: TA100, Metabolic Activation: NONE, Method: STANDARD PLATE.

Regarding `CCCCOCCO`, the mutagenic call by setting is: (Test System: AMES SALMONELLA TYPHIMURIUM, Strain/Indicator: TA97, Metabolic Activation: HAMSTER, LIVER, S-9, AROCLOR 1254 (10 OR 30%), Method: PREINCUBATION) “inactive; negative”; (Test System: AMES SALMONELLA TYPHIMURIUM, Strain/Indicator: TA97, Metabolic Activation: NONE, Method: PREINCUBATION) “inactive; negative”; (Test System: AMES SALMONELLA TYPHIMURIUM, Strain/Indicator: TA97, Metabolic Activation: RAT, LIVER, S-9, AROCLOR 1254 (5, 10 OR 30%), Method: PREINCUBATION) “inactive; negative”; (Test System: AMES SALMONELLA TYPHIMURIUM, Strain/Indicator: TA97A, Metabolic Activation: RAT, LIVER, S-9, AROCLOR 1254 (2.5 OR 10%), Method: STANDARD PLATE) “inactive; negative”; (Test System: AMES SALMONELLA TYPHIMURIUM, Strain/Indicator: TA97A, Metabolic Activation: RAT, LIVER, S-9, AROCLOR 1254, Method: STANDARD PLATE) “active; positive”; (Test System: AMES SALMONELLA TYPHIMURIUM, Strain/Indicator: TA98, Metabolic Activation: HAMSTER, LIVER, S-9, AROCLOR 1254 (10 OR 30%), Method: PREINCUBATION) “inactive; negative”. Besides, the mutagenic call (Test System: AMES SALMONELLA TYPHIMURIUM, Strain/Indicator: TA98, Metabolic Activation: NONE, Method: PREINCUBATION) is “inactive; negative”; the mutagenic call (Test System: AMES SALMONELLA TYPHIMURIUM, Strain/Indicator: TA98, Metabolic Activation: NONE, Method: STANDARD PLATE) was “inactive; negative”; the mutagenic call (Test System: AMES SALMONELLA TYPHIMURIUM, Strain/Indicator: TA98, Metabolic Activation: RAT, LIVER, S-9, AROCLOR 1254 (10 OR 30%), Method: PREINCUBATION) was “inactive; negative”; the mutagenic call under setting [1] was “inactive; negative”; the mutagenic call (Test System: AMES SALMONELLA TYPHIMURIUM, Strain/Indicator: TA100, Metabolic Activation: HAMSTER, LIVER, S-9, AROCLOR 1254 (10 OR 30%), Method: PREINCUBATION) is “inactive; negative”; the mutagenic call (Test System: AMES SALMONELLA TYPHIMURIUM, Strain/Indicator: TA100, Metabolic Activation: NONE, Method: PREINCUBATION) was “inactive; negative”. In addition, the mutagenic call runs as follows: under setting [2], “inactive; negative”; (Test System: AMES SALMONELLA TYPHIMURIUM, Strain/Indicator: TA100, Metabolic Activation: RAT, LIVER, S-9, AROCLOR 1254 (2.5 OR 10%), Method: STANDARD PLATE) “inactive; negative”; (Test System: AMES SALMONELLA TYPHIMURIUM, Strain/Indicator: TA100, Metabolic Activation: RAT, LIVER, S-9, AROCLOR 1254 (10 OR 30%), Method: PREINCUBATION) “inactive; negative”; (Test System: AMES SALMONELLA TYPHIMURIUM, Strain/Indicator: TA100, Metabolic Activation: RAT, LIVER, S-9, AROCLOR 1254, Method: STANDARD PLATE) “inactive; negative”; (Test System: AMES SALMONELLA TYPHIMURIUM, Strain/Indicator: TA102, Metabolic Activation: NONE, Method: STANDARD PLATE) “inactive; negative”; (Test System: AMES SALMONELLA TYPHIMURIUM, Strain/Indicator: TA102, Metabolic Activation: RAT, LIVER, S-9, AROCLOR 1254, Method: STANDARD PLATE) “inactive; negative”. The mutagenic call is “inactive; negative” (Test System: AMES SALMONELLA TYPHIMURIUM, Strain/Indicator: TA1535, Metabolic Activation: HAMSTER, LIVER, S-9, AROCLOR 1254 (10 OR 30%), Method: PREINCUBATION); “inactive; negative” (Test System: AMES SALMONELLA TYPHIMURIUM, Strain/Indicator: TA1535, Metabolic Activation: NONE, Method: PREINCUBATION); “inactive; negative” (Test System: AMES SALMONELLA TYPHIMURIUM, Strain/Indicator: TA1535, Metabolic Activation: RAT, LIVER, S-9, AROCLOR 1254 (10 OR 30%), Method: PREINCUBATION); “inactive; negative” (Test System: AMES SALMONELLA TYPHIMURIUM, Strain/Indicator: TA1537, Metabolic Activation: HAMSTER, LIVER, S-9, AROCLOR 1254 (30%), Method: PREINCUBATION); “inactive; negative” (Test System: AMES SALMONELLA TYPHIMURIUM, Strain/Indicator: TA1537, Metabolic Activation: NONE, Method: PREINCUBATION); “inactive; negative” (Test System: AMES SALMONELLA TYPHIMURIUM, Strain/Indicator: TA1537, Metabolic Activation: RAT, LIVER, S-9, AROCLOR 1254 (30%), Method: PREINCUBATION). Also, the mutagenic call by setting is: (Test System: CHINESE HAMSTER OVARY, Strain/Indicator: CHO-AS52/6-THIOGUANINE, Metabolic Activation: NONE) “inactive; negative”; (Test System: CHINESE HAMSTER V-79, Strain/Indicator: V-79 (HPRT)/6-THIOGUANINE, Metabolic Activation: NONE) “active; positive”; (Test System: E. COLI, Strain/Indicator: WP2 UVRA, Metabolic Activation: NONE, Method: STANDARD PLATE) “inactive; negative”; (Test System: E. COLI, Strain/Indicator: WP2 UVRA, Metabolic Activation: RAT, LIVER, S-9, AROCLOR 1254 (2.5 OR 10%), Method: STANDARD PLATE) “inactive; negative”.
With `CC/C1=C/[C@@H](C)[C@](C)(OC(C)=O)C(=O)OC/C2=C/CN(C)CC[C@@H](OC1=O)C2=O`, the mutagenic call (Test System: UDS RAT HEPATOCYTES, Strain/Indicator: THY INCORP, Metabolic Activation: NONE, Method: AUTORADIOGRAPHY) was “active; positive”.
Regarding `CC(O)C(=O)NCCO` (configuration not stated), the mutagenic call reads like this: under setting [1], “active; positive”; (Test System: AMES SALMONELLA TYPHIMURIUM, Strain/Indicator: TA1538, Metabolic Activation: RAT, LIVER, S-9, AROCLOR 1254, Method: STANDARD PLATE) “active; positive”.
On to `O=[N+]([O-])c1ccc(CN2C3c4ccccc4-c4ccccc4C32)cc1` (configuration not stated), for which the mutagenic call under setting [2] is “active; positive”.

Source of the values: PubChem BioAssay AID1259407 (Chemical Carcinogenesis Research Information System (CCRIS), 2018).
